Like-named read-outs stand apart in the source and are kept apart here. A value given as a limit tells only on which side of the number the result lay.

As a reminder, the inhibition is how much of the control response was suppressed. Read a high inhibition as a strong effect.

What all share (assay): biochemical
The target in one experiment is FGFR2(h) (Homo sapiens, UniProt P21802). Further details: kinase selectivity panel, activity as per cent of control, single concentration in duplicate. To be noted: read-out: % of control remaining. The method, then: (§1) We next assessed selectivity of MS67 against 22 protein methyltransferases (table S2) and a broad panel of common drug targets including 45 kinases (table S3) and 44 G protein–coupled receptors (GPCR), ion channels, and transporters (table S4). […] We subsequently determined that MS67 had moderate binding affinity (Ki = 1.0 ± 0.8 μM) to Sigma 2 receptor (fig. S10).

The next experiment addresses KDR(h) (Homo sapiens, UniProt P35968). Set-up: kinase selectivity panel, activity as per cent of control, single concentration in duplicate. To be noted: read-out: % of control remaining. Here is the method:
as §1

For the next experiment, the target named is Lck(h) (Homo sapiens, UniProt P06239). Set-up: kinase selectivity panel, activity as per cent of control, single concentration in duplicate. To be noted: read-out: % of control remaining. The method, then: as §1
Another experiment concerns the target PAK2(h) (Homo sapiens, UniProt Q13177). Further details: kinase selectivity panel, activity as per cent of control, single concentration in duplicate. To be noted: read-out: % of control remaining. The method, then:
as §1

The target in another experiment is T1, PKBα(h) (Homo sapiens, UniProt P31749).
T1 construct: gene AKT1
Set-up: kinase selectivity panel, activity as per cent of control, single concentration in duplicate. To be noted: read-out: % of control remaining. Here is the method:
as §1

The target of another experiment is T2, ROCK-I(h) (Homo sapiens, UniProt Q13464).
T2 construct: gene ROCK1
Set-up: kinase selectivity panel, activity as per cent of control, single concentration in duplicate. To be noted: read-out: % of control remaining. Here is the method:
as §1

The target of another experiment is T3, 5-HT1B (Homo sapiens, UniProt P28222).
T3 construct: gene HTR1B
Further details: NIMH-PDSP radioligand binding assays, percent inhibition of radioligand binding, quadruplicate.

In the next experiment the target is T4, 5-HT1E (Homo sapiens, UniProt P28566).
T4 construct: gene HTR1E
Further details: NIMH-PDSP radioligand binding assays, percent inhibition of radioligand binding, quadruplicate.

The target in another experiment is T5, 5-HT2B (Homo sapiens, UniProt P41595).
T5 construct: gene HTR2B
Further details: NIMH-PDSP radioligand binding assays, percent inhibition of radioligand binding, quadruplicate.

The target of a further experiment is T6, 5-HT2C (Homo sapiens, UniProt P28335).
T6 construct: gene HTR2C
Further details: NIMH-PDSP radioligand binding assays, percent inhibition of radioligand binding, quadruplicate.

In the next experiment the target is T7, Alpha2C (Homo sapiens, UniProt P18825).
T7 construct: gene ADRA2C
Set-up: NIMH-PDSP radioligand binding assays, percent inhibition of radioligand binding, quadruplicate.

The next experiment addresses T8, Beta2 (Homo sapiens, UniProt P07550).
T8 construct: gene ADRB2
Set-up: NIMH-PDSP radioligand binding assays, percent inhibition of radioligand binding, quadruplicate.

The next experiment deals with T9, D4 (Homo sapiens, UniProt P21917).
T9 construct: gene DRD4
Further details: NIMH-PDSP radioligand binding assays, percent inhibition of radioligand binding, quadruplicate.

Another experiment addresses T10, M5 (Homo sapiens, UniProt P08912).
T10 construct: gene CHRM5
Set-up: NIMH-PDSP radioligand binding assays, percent inhibition of radioligand binding, quadruplicate.

In the next experiment the target is T11, NET (Homo sapiens, UniProt P23975).
T11 construct: gene SLC6A2
Further details: NIMH-PDSP radioligand binding assays, percent inhibition of radioligand binding, quadruplicate.

In another experiment the target is T12, SERT (Homo sapiens, UniProt P31645).
T12 construct: gene SLC6A4
Further details: NIMH-PDSP radioligand binding assays, percent inhibition of radioligand binding, quadruplicate.

In another experiment the target is PRMT1 (Homo sapiens, UniProt Q99873). Further details: protein methyltransferase inhibition panel, single concentration, duplicate. The method, then: as §1
A further experiment concerns the target T13, SET8 (Homo sapiens, UniProt Q9NQR1).
T13 construct: gene KMT5A
T13 sequence (Q9NQR1 1-393): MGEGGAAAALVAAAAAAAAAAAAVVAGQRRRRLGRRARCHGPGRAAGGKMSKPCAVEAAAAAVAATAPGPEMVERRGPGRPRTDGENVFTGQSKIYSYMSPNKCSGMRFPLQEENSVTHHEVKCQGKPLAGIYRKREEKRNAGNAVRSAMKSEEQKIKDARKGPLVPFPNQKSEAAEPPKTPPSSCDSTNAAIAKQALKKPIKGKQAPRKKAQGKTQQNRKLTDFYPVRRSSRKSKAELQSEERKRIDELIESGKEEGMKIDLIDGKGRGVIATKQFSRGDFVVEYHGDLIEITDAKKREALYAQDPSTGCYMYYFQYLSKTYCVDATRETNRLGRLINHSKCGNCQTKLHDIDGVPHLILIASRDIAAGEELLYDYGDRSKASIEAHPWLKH
Further details: protein methyltransferase inhibition panel, single concentration, duplicate. Here is the method:
as §1

In a further experiment the target is SETD2 (Homo sapiens, UniProt Q9BYW2). Set-up: protein methyltransferase inhibition panel, single concentration, duplicate. The method, then: as §1
The target in experiment [1] is T14, SET1b Complex (Homo sapiens, UniProt Q9UPS6). Set-up: gene SETD1B; Complex; protein methyltransferase selectivity panel, enzyme activity relative to DMSO controls, single concentration in duplicate. To be noted: Substrate:=Core Histone. Here is the method: as §1
Target sequence in this assay (Q15291 whole entry): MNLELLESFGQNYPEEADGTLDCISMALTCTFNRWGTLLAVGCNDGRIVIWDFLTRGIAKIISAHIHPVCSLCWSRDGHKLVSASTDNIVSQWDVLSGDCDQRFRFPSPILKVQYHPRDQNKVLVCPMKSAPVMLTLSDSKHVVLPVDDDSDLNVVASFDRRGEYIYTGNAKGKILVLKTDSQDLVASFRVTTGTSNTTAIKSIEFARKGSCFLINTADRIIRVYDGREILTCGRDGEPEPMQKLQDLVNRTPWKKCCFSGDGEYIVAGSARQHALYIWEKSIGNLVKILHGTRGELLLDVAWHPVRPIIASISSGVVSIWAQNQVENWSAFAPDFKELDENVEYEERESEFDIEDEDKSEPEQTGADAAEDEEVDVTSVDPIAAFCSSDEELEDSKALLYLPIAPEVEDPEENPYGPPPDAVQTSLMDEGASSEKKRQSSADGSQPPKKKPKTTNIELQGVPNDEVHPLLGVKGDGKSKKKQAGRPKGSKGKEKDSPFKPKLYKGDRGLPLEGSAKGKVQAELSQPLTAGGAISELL
Target sequence in this assay (Q9UPS6 whole entry): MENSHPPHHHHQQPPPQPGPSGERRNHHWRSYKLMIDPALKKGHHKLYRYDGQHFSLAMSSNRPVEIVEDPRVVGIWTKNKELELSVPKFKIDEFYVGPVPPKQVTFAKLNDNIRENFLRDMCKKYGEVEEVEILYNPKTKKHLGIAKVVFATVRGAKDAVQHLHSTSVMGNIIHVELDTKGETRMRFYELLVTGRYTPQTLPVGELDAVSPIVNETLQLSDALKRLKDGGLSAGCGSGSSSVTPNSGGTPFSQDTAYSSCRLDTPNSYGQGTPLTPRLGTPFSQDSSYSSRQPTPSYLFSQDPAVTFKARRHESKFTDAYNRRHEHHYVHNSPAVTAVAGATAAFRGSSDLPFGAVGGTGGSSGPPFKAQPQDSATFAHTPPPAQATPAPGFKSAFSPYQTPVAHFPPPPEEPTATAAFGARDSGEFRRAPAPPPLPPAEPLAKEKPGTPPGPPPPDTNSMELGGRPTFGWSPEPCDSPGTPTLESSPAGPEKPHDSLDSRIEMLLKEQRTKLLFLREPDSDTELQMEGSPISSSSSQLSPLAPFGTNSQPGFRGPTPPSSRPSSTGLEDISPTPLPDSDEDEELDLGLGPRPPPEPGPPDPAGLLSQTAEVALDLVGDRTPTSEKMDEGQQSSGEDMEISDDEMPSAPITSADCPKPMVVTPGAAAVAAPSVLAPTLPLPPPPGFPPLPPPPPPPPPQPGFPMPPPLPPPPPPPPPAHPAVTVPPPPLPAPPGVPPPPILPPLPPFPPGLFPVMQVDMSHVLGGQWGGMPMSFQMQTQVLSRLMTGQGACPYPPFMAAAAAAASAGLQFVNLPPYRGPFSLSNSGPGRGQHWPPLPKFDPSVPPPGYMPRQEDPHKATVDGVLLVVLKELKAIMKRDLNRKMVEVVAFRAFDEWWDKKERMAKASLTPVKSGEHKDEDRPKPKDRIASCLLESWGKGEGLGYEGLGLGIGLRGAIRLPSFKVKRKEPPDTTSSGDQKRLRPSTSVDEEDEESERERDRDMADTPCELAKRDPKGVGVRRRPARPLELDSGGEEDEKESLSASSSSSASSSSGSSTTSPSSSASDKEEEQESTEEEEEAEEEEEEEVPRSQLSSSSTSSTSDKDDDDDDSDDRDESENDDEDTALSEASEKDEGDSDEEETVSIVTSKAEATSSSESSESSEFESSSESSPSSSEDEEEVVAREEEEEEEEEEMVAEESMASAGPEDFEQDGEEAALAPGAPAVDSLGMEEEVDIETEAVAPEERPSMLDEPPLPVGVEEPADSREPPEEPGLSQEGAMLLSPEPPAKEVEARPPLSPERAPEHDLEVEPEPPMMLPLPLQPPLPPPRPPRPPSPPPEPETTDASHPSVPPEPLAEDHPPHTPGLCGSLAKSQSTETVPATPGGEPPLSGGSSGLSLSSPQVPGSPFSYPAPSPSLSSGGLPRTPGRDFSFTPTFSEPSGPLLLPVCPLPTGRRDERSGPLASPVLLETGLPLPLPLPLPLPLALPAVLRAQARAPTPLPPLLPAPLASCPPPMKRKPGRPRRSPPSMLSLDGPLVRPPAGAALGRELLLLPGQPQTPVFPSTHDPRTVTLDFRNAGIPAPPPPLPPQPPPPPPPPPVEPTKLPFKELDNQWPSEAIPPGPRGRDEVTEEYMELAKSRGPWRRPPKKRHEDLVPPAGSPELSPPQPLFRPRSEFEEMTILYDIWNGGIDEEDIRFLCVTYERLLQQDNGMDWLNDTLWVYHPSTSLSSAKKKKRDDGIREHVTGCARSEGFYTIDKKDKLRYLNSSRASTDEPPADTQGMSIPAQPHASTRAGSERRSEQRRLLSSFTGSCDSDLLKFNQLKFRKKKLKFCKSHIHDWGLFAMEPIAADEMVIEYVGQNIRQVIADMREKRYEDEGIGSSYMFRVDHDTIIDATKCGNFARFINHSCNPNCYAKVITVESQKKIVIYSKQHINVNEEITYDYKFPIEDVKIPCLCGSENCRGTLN
Target sequence in this assay (Q9C005 whole entry, further chain): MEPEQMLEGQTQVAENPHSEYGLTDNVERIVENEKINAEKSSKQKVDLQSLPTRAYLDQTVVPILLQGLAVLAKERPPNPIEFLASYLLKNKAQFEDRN
Target sequence in this assay (Q9UBL3 whole entry, further chain): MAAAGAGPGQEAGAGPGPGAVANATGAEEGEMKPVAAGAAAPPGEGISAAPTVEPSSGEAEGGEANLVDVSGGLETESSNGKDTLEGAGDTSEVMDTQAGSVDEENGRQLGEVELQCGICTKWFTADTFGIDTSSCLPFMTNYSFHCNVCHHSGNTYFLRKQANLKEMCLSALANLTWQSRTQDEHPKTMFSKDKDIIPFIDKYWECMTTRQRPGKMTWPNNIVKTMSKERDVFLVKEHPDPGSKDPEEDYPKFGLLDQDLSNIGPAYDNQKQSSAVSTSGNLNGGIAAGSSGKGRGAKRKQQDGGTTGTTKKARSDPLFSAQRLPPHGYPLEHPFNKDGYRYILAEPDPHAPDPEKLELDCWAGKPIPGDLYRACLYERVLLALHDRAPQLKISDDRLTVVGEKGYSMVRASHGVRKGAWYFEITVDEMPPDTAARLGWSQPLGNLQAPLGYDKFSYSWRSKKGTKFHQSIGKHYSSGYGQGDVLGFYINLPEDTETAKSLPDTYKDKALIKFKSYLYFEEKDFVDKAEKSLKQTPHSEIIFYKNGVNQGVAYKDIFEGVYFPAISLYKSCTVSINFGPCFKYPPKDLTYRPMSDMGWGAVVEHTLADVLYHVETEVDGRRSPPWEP
In experiment [2] the target is T14, SET1b Complex. Set-up: gene SETD1B; complex; protein methyltransferase inhibition panel, single concentration, duplicate. The method, then:
as §1

KDR(h), sequence (P35968 whole entry): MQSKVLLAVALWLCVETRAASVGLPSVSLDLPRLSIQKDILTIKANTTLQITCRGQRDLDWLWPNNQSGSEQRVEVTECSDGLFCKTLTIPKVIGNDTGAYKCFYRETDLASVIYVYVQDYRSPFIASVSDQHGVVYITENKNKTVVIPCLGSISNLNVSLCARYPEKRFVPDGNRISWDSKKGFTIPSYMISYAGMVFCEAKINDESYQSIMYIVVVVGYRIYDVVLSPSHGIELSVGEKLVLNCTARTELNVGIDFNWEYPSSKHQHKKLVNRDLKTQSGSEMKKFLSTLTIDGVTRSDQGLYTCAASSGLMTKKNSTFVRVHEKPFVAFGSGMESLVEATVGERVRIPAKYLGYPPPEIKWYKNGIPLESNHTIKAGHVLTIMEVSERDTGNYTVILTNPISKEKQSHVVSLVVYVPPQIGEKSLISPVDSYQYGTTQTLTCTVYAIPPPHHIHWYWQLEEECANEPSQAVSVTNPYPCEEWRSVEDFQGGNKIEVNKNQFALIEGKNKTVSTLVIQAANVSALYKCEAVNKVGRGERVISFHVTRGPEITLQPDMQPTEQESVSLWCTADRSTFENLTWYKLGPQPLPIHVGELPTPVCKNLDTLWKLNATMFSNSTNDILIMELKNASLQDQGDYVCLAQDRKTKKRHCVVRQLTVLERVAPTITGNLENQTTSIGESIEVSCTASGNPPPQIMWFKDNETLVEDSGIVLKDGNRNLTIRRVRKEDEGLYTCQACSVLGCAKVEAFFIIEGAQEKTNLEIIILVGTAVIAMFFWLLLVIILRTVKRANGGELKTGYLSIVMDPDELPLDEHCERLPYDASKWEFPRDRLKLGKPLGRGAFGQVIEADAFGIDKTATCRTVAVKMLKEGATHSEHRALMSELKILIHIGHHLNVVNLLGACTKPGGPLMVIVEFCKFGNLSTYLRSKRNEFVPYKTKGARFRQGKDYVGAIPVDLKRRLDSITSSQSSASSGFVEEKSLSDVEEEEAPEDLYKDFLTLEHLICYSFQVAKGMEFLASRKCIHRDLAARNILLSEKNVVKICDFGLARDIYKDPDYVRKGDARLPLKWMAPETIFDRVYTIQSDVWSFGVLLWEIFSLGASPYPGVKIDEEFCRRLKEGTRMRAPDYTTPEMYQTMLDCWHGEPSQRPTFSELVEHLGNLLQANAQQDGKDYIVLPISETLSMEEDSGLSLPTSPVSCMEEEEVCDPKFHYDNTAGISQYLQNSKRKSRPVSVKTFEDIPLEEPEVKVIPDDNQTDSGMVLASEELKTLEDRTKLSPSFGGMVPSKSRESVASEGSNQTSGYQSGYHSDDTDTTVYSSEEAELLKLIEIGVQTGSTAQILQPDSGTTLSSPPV
T8 sequence (P07550 whole entry): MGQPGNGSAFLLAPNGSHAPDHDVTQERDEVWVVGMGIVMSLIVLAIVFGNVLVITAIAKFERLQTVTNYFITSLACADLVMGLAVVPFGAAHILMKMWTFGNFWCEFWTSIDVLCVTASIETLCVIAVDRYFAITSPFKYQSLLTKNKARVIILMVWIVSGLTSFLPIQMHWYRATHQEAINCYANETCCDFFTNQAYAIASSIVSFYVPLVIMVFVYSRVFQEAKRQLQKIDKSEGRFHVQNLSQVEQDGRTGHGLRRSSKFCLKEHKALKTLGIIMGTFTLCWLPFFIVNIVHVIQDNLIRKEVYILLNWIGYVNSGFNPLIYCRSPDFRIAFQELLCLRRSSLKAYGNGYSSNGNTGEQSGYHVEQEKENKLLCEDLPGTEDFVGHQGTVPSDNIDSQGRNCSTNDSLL

Consider `Cc1ncsc1-c1ccc([C@H](C)NC(=O)[C@@H]2C[C@@H](O)CN2C(=O)[C@@H](NC(=O)CNC(=O)c2ccc(F)c(-c3ccc(N4C[C@@H](C)N(C)[C@@H](C)C4)c(NC(=O)c4c[nH]c(=O)cc4C(F)(F)F)c3)c2)C(C)(C)C)cc1` [MS67], for which the remaining activity at 1 µM is 84% on FGFR2(h); 110% on KDR(h); 97% on Lck(h); 89% on PAK2(h); 93% at PKBα(h); 109% on ROCK-I(h). The inhibition at 1 µM on 5-HT1B, at 5-HT1E, on 5-HT2B, at 5-HT2C, at Alpha2C and on Beta2 was less than 10% throughout. Moreover, the inhibition at 1 µM at D4, at M5, at NET and on SERT was less than 10% each time. Further, the inhibition at 10 µM at PRMT1, on SET8, on SETD2 and on SET1b Complex [2] was less than 10% throughout. For the same compound, the values for the remaining activity at 10 µM on SET1b Complex [1] (read-out: Enzyme % Activity (relative to DMSO controls) / MS67 / 10 / Data 1:) and at SET1b Complex [1] (read-out: Enzyme % Activity (relative to DMSO controls) / MS67 / 10 / Data 2:) were 94.9% and 92.1%, respectively.

The record behind these values is PMC8500670, “A selective WDR5 degrader inhibits acute myeloid leukemia in patient-derived mouse models” (Science translational medicine, 2021).
